Where a name gives a salt, the structure may show the parent alone. Read-outs that look alike come from different tables or passages of the source. Marks after values point to notes of the source that are not given here. One block for each molecule: values may come before it.
Legend:
hOAT [1] = target: T1, hOAT (Homo sapiens, UniProt P04181); assay: Time-dependent inactivation of hOAT; type: biochemical; settings: for kinact/KI: inactivation efficiency; for KI (inactivator concentration for half-maximal inactivation): inhibitor concentration for half-maximal inactivation; for KI (inactivator concentration for half-maximal inactivation) / kinact: mean and standard error
T1 construct: made in house; host or cells: E. coli BL21(DE3)
T1 sequence (P04181 26-439): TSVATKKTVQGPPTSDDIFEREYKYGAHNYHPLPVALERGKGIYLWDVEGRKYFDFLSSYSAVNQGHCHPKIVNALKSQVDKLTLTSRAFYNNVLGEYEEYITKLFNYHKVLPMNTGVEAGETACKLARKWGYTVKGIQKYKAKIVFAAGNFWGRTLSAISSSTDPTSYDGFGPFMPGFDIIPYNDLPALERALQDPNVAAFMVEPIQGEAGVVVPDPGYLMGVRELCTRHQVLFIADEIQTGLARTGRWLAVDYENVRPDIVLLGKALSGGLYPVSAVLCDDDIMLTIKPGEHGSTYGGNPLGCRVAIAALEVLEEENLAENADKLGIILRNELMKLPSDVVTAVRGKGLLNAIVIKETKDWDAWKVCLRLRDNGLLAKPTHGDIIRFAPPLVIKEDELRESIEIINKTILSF
Protocol: (§1) All reagents for enzyme purification and assays were purchased from Sigma-Aldrich (St. Louis, MO, USA). Human OAT (0.672 mg/mL) was purified from E. coli BL21 (DE3) cells following the procedure described above, and coenzyme human recombinant pyrroline 5-carboxylate reductase (PYCRI) were expressed, grown, and purified according to a literature procedure.^4 γ-Aminobutyric acid aminotransferase (GABA-AT, 0.4 mg/mL) was purified from pig brain following a procedure described previously^5, and coenzyme succinic semialdehyde dehydrogenase (SSDH) was purified from GABase (catalog No. G7509-25UN, Sigma-Aldrich), a commercially available mixture of SSDH and GABA-AT, using a known procedure.^6 Commercially available L-aspartate aminotransferase (Asp-AT) from the porcine heart (catalog No. G2751-2KU, Sigma-Aldrich) and the desired assay coenzyme malic dehydrogenase from porcine (catalog No. M2634-5KU, Sigma-Aldrich), and L-alanine aminotransferase (Ala-AT) from the porcine heart (catalog No. G8255-200UN, Sigma-Aldrich) and the desired assay coenzyme lactate dehydrogenase from porcine (catalog No. 427211-50KU, Sigma-Aldrich) were used directly without further purification. All the enzyme assays for the inactivation, partition ratio, and dialysis experiment were recorded on a Synergy H1 hybrid multimode microplate reader (Biotek, USA) with transparent 96-well plates.
Time-dependent inactivation against hOAT was performed using an optimized procedure published previously.^7 10 μL of hOAT (0.025 mg/mL) was preincubated with 10 μL of various concentrations of tested compounds in 100 mM potassium pyrophosphate buffer (pH 8.0, 5 mM α-ketoglutarate, and 5 mM β-mercaptoethanol) at 25° C. in a 96-well plate. At time intervals, 80 μL of assay solution containing PYCR^1 (0.5 μg), 1 mM NADH, and 25 mM L-ornithine in the abovementioned potassium pyrophosphate buffer were added to the incubation mixture and assayed for OAT activity at 37° C. for 30 min. The change in UV absorbance at 340 nm at 37° C. based on the conversion of NADH to NAD was monitored by a microplate reader. All assays were performed in duplicate, and the remaining OAT activity at each preincubation time at each inhibitor concentration was averaged. The natural logarithm of the percentage of the remaining OAT activity was plotted against the preincubation time at each inhibitor concentration to obtain the kobs (slope) value for each concentration. The kobs value is the rate constant describing the inactivation at each inhibitor concentration. kobs is replotted against the inhibitor concentration using nonlinear regression analysis using GraphPad Prism 8.0. K1 and kinact values were estimated from equation (1)
where kinact is the maximal rate of inactivation, K1 is the inhibitor concentration required for half-maximal inactivation, and [I] is the preincubation concentration of the tested compound.

[2] = test system: aspartate aminotransferase (Asp-AT); settings: up to 4 mM; cited from earlier work
GABA-AT [3] = target: T2, GABA-AT (Sus scrofa, UniProt P80147); assay: Reversible inhibition of GABA-AT (coupled assay with SSDH); type: biochemical, pig; design: was purified from pig brain following a procedure described previously; from tissue; host or cells: pig brain; settings: for Ki: Ki = IC50/(1 + [S]/Km), 9-point assay
T2 sequence (P80147 29-500): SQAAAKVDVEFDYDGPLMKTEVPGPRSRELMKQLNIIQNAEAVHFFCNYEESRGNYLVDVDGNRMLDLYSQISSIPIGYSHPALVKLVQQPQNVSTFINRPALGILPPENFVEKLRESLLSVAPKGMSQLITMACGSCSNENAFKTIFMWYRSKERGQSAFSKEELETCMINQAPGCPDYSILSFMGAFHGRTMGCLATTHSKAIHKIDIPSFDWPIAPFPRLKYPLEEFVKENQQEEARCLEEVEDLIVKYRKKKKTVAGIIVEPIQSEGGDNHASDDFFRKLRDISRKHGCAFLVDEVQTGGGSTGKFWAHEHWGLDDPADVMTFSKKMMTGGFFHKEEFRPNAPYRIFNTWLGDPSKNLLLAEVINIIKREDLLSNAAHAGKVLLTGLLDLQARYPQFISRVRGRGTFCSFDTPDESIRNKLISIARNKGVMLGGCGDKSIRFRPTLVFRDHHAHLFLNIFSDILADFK
Protocol: as §1
96-well plates were loaded with 80 μL of an assay mixture containing excess SSDH, 1 mM NADP^+, 11.1 mM GABA, and 10 μL of various concentrations of the tested compounds in 50 mM potassium pyrophosphate buffer (pH 8.5, 5 mM α-ketoglutarate, and 5 mM β-mercaptoethanol). […] The microplate was shaken at 25° C. for 1 min, and the remaining enzyme activity was determined by observing the change in absorbance at 340 nm at 25° C. based on the conversion of NADP^+ to NADPH. […] Subsequent Ki values were determined using equation (2) All assays were performed in duplicate.

HCC mouse model = settings: 0.1 and 1.0 mg/kg; PO; cited from earlier work
[4] = test system: alanine aminotransferase (Ala-AT); settings: up to 4 mM; cited from earlier work
hOAT [5] = target: T1, hOAT; settings: data extracted from Reference 9; cited from earlier work
hOAT [6] = target: T1, hOAT; settings: data extracted from Reference 9; cited from earlier work; remark: listed apart in the source
hOAT [7] = target: T1, hOAT; assay: Fluoride ion release assay; type: biochemical; settings: without α-KG; triplicate, mean with standard deviation
Protocol: The fluoride ion release assay was conducted using previous protocols.^10 The final concentration of enzyme in the sample was determined via BCA protein assay kit (Pierce, cat: 23225). A calibration curve of voltage (V, mV) was generated from varying concentrations of NaF (F, μM). For accurate detection of fluoride ion concentration, 10 μM of fluoride ion was added to each control and sample The number of fluoride ions released per active site was calculated by the ratio of the fluoride ion release concentration and enzyme concentration.

hOAT [8] = target: T1, hOAT; assay: Partition ratio experiment (titration of hOAT); type: biochemical; settings: in the presence of α-KG
Protocol: FIG. 9. Titration of hOAT with SS-1-148. The loss of enzyme activity was measured as a function of the ratio of […] to enzyme concentration. Linear regression was used on the linear portion of the curves to obtain the X-intercept, which was the turnover number (partition ratio=turnover number−1).
The partition ratio was calculated using previous protocols.^8-10

GABA-AT [9] = target: T2, GABA-AT; settings: literature, cited from earlier work
hOAT [10] = target: T1, hOAT; settings: literature; cited from earlier work

- kinact/KI (hOAT [1]): 16.7 M⁻¹ s⁻¹
- KI (inactivator concentration for half-maximal inactivation) (hOAT [1]): 90 ± 30 µM
- kinact (hOAT [1]): 0.0015 s⁻¹
- Ki (GABA-AT [3]): 5160 µM
Structure (SMILES): N[C@H]1C[C@@H](C(=O)O)CC1=C(C(F)(F)F)C(F)(F)F [BCF3, (1S,3S)-3-Amino-4-(hexafluoropropan-2-ylidenyl)-cyclopentane-1-carboxylic Acid]
- inhibition on aspartate aminotransferase (Asp-AT) [2]: no inhibition
- serum AFP levels (HCC mouse model): remarkably decreased
- tumor growth (HCC mouse model): inhibited tumor growth
- inhibition on alanine aminotransferase (Ala-AT) [4]: no inhibition
- Fluoride ion release (hOAT [5]): 79^b
- Partition ratio (hOAT [6]): 12^b

- Fluoride ion release (hOAT [7]): 3395± 31
Structure (SMILES): N[C@H]1C[C@@H](C(=O)O)CC1(F)F [Compound 4, (1R,4S)-4-Amino-3,3-difluorocyclopentanecarboxylic acid hydrochloric acid salt, reference compound]

- kinact/KI (hOAT [1]): 0.233 M⁻¹ s⁻¹
- KI (inactivator concentration for half-maximal inactivation) (hOAT [1]): 2130 ± 900 µM
- kinact (hOAT [1]): 0.0005 s⁻¹
- inhibitory activity against GABA-AT weaker than cyclopentane-based 4 (GABA-AT [3]): about 10 times
- Ki (GABA-AT [3]): 1340 µM
- Fluoride ion release (hOAT [7]): 754 ± 57
- Partition ratio (hOAT [8]): 817
Structure (SMILES): N[C@H]1CC(C(=O)O)=CC1(F)F [Compound 5, (S)-4-Amino-3,3-difluorocyclopent-1-enecarboxylic acid]

Structure (SMILES): N[C@H]1C=C(C(=O)O)CCC1(F)F [WZ-2-051, (S)-3-amino-4,4-difluorocyclohex-1-enecarboxylic acid]
- selectivity over GABA-AT (GABA-AT [9]; hOAT over GABA-AT): 13.3 fold
- type of inhibition on GABA-AT (GABA-AT [9]): apparent irresponsible inhibition
- improvement in inactivation efficiency (kinact/K1 ratio) against hOAT compared to BCF3 (hOAT [10]): 23 fold
